Measurements as given in US7939639B2, “Functional role of adrenomedullin (AM) and the gene related product (PAMP) in human pathology and physiology” (The United States of America as represented by the …, priority 1995, dated 2011).
Entries after “also recorded” stand apart in the source; their conditions may differ.

Legend:
[1] = system: tumor cell lines (lung, colon, breast, brain, and ovary); format: cell-based, human; details: R0-grown cultures; AM 0.1 μM to 100 μM, 0.1 nM to 100 nM
Text: Results Obtained by Immunohistochemical (IHc) and in situ RT-PCR examination of paraffin-embedded RO-adapted cell lines were consistent with previously reported data on normal lung and pathological lung specimens (Martinez, A., et al., Endocrinology 136:4099-4105 (1995)). […] To further investigate this suspected phenomenon, MTT assay techniques were used to examine the effects of AM on the growth of several diverse tumor cell lines (lung, colon, breast, brain, and ovary). […] Since the test cells were known to produce authentic AM peptide, we assumed that this inability to stimulate growth with extrinsic ligand could possibly mean that the cells has already achieved maximal proliferative effects using their own AM.
i. Growth Assays: MTT techniques were performed as previously described (Nakanishi, Y. F., et al., Exper. Cell Biol. 56:74-85 (1988)). In brief, a single cell suspension of 2×10^5 cells/ml (50 μl/well) is seeded into 96-well PVC plates and an appropriate concentration of MoAb-G6 and AM was added in a volume of 50 μl. The assay is performed in TIS medium (RMPI 1640 plus 10 μg/ml transferrin, 10 μg/ml insulin and 3×10^−8M sodium selenite). […] The Biorad Microplate Manager plate reader and software was used to determine the change in number of viable cells from dye reduction measured by absorbance at 570 nm. […]

[2] = system: E. coli; experiment: Microdilutional timed kill assay, E. coli; format: cell-based, Escherichia coli
Procedure: (§1) Inhibition of growth of E. coli was assessed in a microdilutional timed kill assay. (See FIG. 22) Bacteria and Candida albicans were grown overnight on trypticase soy agar (TSA) and Sobouraud dextrose agar (SDA) plates, respectively, were suspended into RPMI-1640 medium (Bio-Whittaker) and adjusted to a final concentration of 8×10^3 cfu/ml in […] in plastic microdilution trays. AM-related peptides, magainins, and albumin were added in equimolar concentrations ranging from 8 μM to 300 μM. Plates were incubated at 37° C. with gentle agitation over 24 hours. At 6 hr and 24 hr time points, 10 to […] aliquots from each well were quantitatively cultured by serial 100-fold dilutions onto TSA and SDA plates.

[3] = system: RINm, N289, TR4, CRL 2057, CRL 1777, CRL 2055; experiment: Insulin secretion of insulin-producing cell lines; format: cell-based; details: six insulin-producing cell lines
Text: A similar mechanism has been described for amylin (R. A. Pittner et al., J. Cell. Biochem. 55S, 19 (1994)).

[4] = system: E. coli; experiment: Macrodilution assay, E. coli; format: cell-based, Escherichia coli; details: E. coli
Procedure: (§2) Data were compiled from six experiments. Macrodilution assays were performed in 12×75 mm borosilicate glass tubes. Organisms were grown and harvested, as described in Roilides, E., et al., J Infect Dis. 163:579 (1991), and adjusted to a final inoculum concentration of 8×10^3 cfu/ml in 400 μl. […] Tubes were incubated at 37° C. with gentle agitation over 24 hours. At 6 and 24 hour time points, 100 μl aliquots from each tube were quantitatively cultured by serial 100-fold dilutions onto TSA and SDA plates.

[5] = system: C. albicans; experiment: Micro-/macrodilutional assay, C. albicans; format: cell-based, Candida albicans
Procedure: as §1, with “AM-related peptides, magainins, and albumin were added in equimolar concentrations ranging from 8 μM to 300 μM.” left out
as §2

[6] = system: S. aureus; experiment: Micro-/macrodilutional assays, S. aureus; format: cell-based, Staphylococcus aureus; details: microdilutional or macrodilutional assays
Procedure: as §1, with “AM-related peptides, magainins, and albumin were added in equimolar concentrations ranging from 8 μM to 300 μM.” left out
as §2

[7] = system: MCF-7; experiment: Soft agar clonal growth assay, MCF-7; format: cell-based, human; details: exogenous AM
[8] = system: P. aeruginosa; experiment: Micro-/macrodilution timed kill assay, P. aeruginosa; format: cell-based, Pseudomonas aeruginosa; details: 24 hours exposure compared with 6 hours incubation
Procedure: as §1, with “AM-related peptides, magainins, and albumin were added in equimolar concentrations ranging from 8 μM to 300 μM.” left out
as §2

[9] = system: rat isolated islets; experiment: cAMP content of rat isolated islets (RIA); format: cell-based; details: after addition of AM
Procedure: Dose-dependent increase of intracellular cAMP in the islets following addition of AM. Islets from six rats were isolated following well-established protocols (Gray, et al., Diabetes 33, 1055 (1984)). Assays were performed in 24-well plates (90 islets per well). After a 45 min incubation in […] medium containing 5.6 mM glucose, a second incubation in RPMI containing 20.6 mM glucose and the proper concentration of AM and/or the antibody was performed. Supernatants from both incubations were tested by radioimmunoassay (RIA) for insulin (Amersham, Arlington Heights, Ill.). The ratio between the insulin concentration found in the high glucose supernatant and the insulin measured in the low glucose solution is represented in ordinates. After collecting the medium, the islets from the same experiments were saved for analysis of cAMP contents (Korman, et al., Cancer Res. 46, 1214 (1986)). Islets were extracted in 50% ethanol and centrifuged, and the supernatants were tested for cAMP using a RIA kit (New England Nuclear, Boston, Mass.) following manufacturer's instructions. The experiments were repeated three times and a representative example shown. Data are means±standard deviations of two wells.

Compound: CC[C@H](C)[C@H](NC(=O)[C@H](CCC(N)=O)NC(=O)[C@H](Cc1c[nH]cn1)NC(=O)[C@H](C)NC(=O)[C@H](CC(C)C)NC(=O)[C@H](CCCCN)NC(=O)[C@H](CCC(N)=O)NC(=O)[C@@H](NC(=O)[C@@H](NC(=O)[C@@H]1CSSC[C@H](NC(=O)CNC(=O)[C@H](Cc2ccccc2)NC(=O)[C@H](CO)NC(=O)[C@H](CCCNC(=N)N)NC(=O)[C@H](CC(C)C)NC(=O)CNC(=O)[C@H](CCC(N)=O)NC(=O)[C@H](Cc2ccccc2)NC(=O)[C@H](CC(N)=O)NC(=O)[C@H](CC(N)=O)NC(=O)[C@H](CCSC)NC(=O)[C@H](CO)NC(=O)[C@H](CCC(N)=O)NC(=O)[C@H](CCCNC(=N)N)NC(=O)[C@@H](N)Cc2ccc(O)cc2)C(=O)N[C@@H](CCCNC(=N)N)C(=O)N[C@@H](Cc2ccccc2)C(=O)NCC(=O)N[C@@H]([C@@H](C)O)C(=O)N1)[C@@H](C)O)C(C)C)C(=O)N[C@@H](Cc1ccc(O)cc1)C(=O)N[C@@H](CCC(N)=O)C(=O)N[C@@H](Cc1ccccc1)C(=O)N[C@H](C(=O)N[C@@H](CC(=O)O)C(=O)N[C@@H](CCCCN)C(=O)N[C@@H](CC(=O)O)C(=O)N[C@@H](CCCCN)C(=O)N[C@@H](CC(=O)O)C(=O)N[C@@H](CC(N)=O)C(=O)N[C@H](C(=O)N[C@@H](C)C(=O)N1CCC[C@H]1C(=O)N[C@@H](CCCNC(=N)N)C(=O)N[C@@H](CO)C(=O)N[C@@H](CCCCN)C(=O)N[C@H](C(=O)N[C@@H](CO)C(=O)N1CCC[C@H]1C(=O)N[C@@H](CCC(N)=O)C(=O)NCC(=O)N[C@@H](Cc1ccc(O)cc1)C(N)=O)[C@@H](C)CC)C(C)C)[C@@H](C)O [AM]
- stimulation of growth by exogenous AM [1]: ineffective in stimulating growth
- activity against E. coli ([2]; after 6 hours of incubation): activity
- growth inhibitory activity against E. coli, comparative ([2]; microdilution, 6 hours, FIG. 22): higher growth inhibitory activity than albumin
- change in insulin secretion rate [3]: no change in insulin secretion rate; also recorded: not directly affected
- antimicrobial activity, macrodilution, 6 hours ([4]; 6 hours incubation): no activity
- antimicrobial activity, macrodilution, 24 hours ([4]; 24 hours incubation): somewhat more active than PAMP; also recorded: slightly more active than PAMP
- antimicrobial effect against C. albicans [5]: 73%±8.1
- activity against C. albicans ([5]; after 6 hours of incubation): activity
- growth suppressive activity against S. aureus [6]: ineffective; also recorded: no apparent growth suppressive activity
- clonal growth in soft agar [7]: elevated clonal growth
- antimicrobial activity against P. aeruginosa, 24 hours versus 6 hours [8]: greater antimicrobial activity
- cAMP levels in the islets [9]: Elevating levels of cAMP; also recorded: cAMP levels increased
